According to patent US20130267474A1, “NOVEL PHYTOCHEMICALS FROM EXTRACTS OF MAPLE SYRUPS AND MAPLE TREES AND USES THEREOF” (UNIVERSITY OF RHODE ISLAND, priority 2010, published 2013):
Like-named read-outs stand apart in the source and are kept apart here.

Key:
[1] = system: HCT-116 (human colon carcinoma); assay: MTS cytotoxicity / antiproliferative assay; assay type: cell-based; settings: for IC50: Homo sapiens
Experimental: (§1) Cell lines included three human colon cancer cells: HT-29 (human colon adenocarcinoma), HCT116 (human colon carcinoma) and Caco-2 (human epithelial colorectal adenocarcinoma). In addition, normal human colon cells are included: CCD-^18Co (human colon fibroblasts). All cell lines are obtained from the American Type Culture Collection (ATCC, Rockville, Md., USA) and maintained at the University of Rhode Island.
(§2) The assay is carried out to measure the IC50 values for samples. […] Test samples and a positive control, etoposide 4 mg/mL (Sigma), are solubilized in DMSO by sonication. […] Control wells are also included on all plates. […] Each point on the curve is […]. Data (see tables 6 to 9) are expressed as mean±SE for three replications on each cell line.

[2] = system: CCD-18Co (normal human colon fibroblasts); assay: MTS cytotoxicity / antiproliferative assay; assay type: cell-based; settings: 72 h; for IC50: Homo sapiens, CCD-18Co
Experimental: as §1, §2

[3] = system: HT-29 (human colon adenocarcinoma); assay: MTS cytotoxicity / antiproliferative assay; assay type: cell-based; settings: for IC50: Homo sapiens
Experimental: as §1, §2

[4] = system: Caco-2 (human epithelial colorectal adenocarcinoma); assay: MTS cytotoxicity / antiproliferative assay; assay type: cell-based; settings: for IC50: Homo sapiens
Experimental: as §1, §2

[5] = DPPH radical scavenging (antioxidant) assay; assay type: biochemical; settings: Table 10; mean ± standard deviation; 30 min, 515 nm; read-out: IC50 (μM), DPPH radical scavenging
Experimental: The DPPH radical scavenging activity of ascorbic acid (vitamin C) and the synthetic commercial antioxidant, butylated hydroxytoluene (BHT) are also assayed as positive controls (see Table 10). […] Absorbance is determined after 30 min at 515 nm, and the scavenging capacity (SC) is calculated as SC %=[(A0−A1/A0)]×100, where A0 is the absorbance of the reagent blank and A1 is the absorbance of the test samples. The control contained all reagents except the compounds, and all tests are performed in triplicate.
Absorbance is determined after 30 min at 515 nm, and the scavenging capacity (SC) is calculated as SC %=[(A0−A1/A0)]×100 where A0 is the absorbance of the reagent blank, and A1 is the absorbance with test samples. The control contained all reagents except the compounds and all tests are performed in triplicate.

[6] = HCT-116, 48 h, read-out: Antiproliferative activity HCT-116 48 h (IC50), 48 h, pure isolated compounds
[7] = HCT-116, 72 h, 72 h, pure isolated compounds, read-out: Antiproliferative activity HCT-116 72 h (IC50)
[8] = HCT-116, 72 h, 72 h, range given for the group, read-out: IC50 against HCT-116 cells at 72 h (activity ranking)
[9] = pure isolated compounds, read-out: Antiproliferative activity CCD-8Co 72 h (IC50)
[10] = HT-29, 48 h, read-out: Antiproliferative activity HT-29 48 h (IC50), 48 h, pure isolated compounds
[11] = HT-29, 72 h, 72 h, pure isolated compounds, read-out: Antiproliferative activity HT-29 72 h (IC50)
[12] = Caco-2, 48 h, read-out: Antiproliferative activity Caco-2 48 h (IC50), 48 h, pure isolated compounds
[13] = Caco-2, 72 h, 72 h, pure isolated compounds, read-out: Antiproliferative activity Caco-2 72 h (IC50)
[14] = HCT-116, 48 h, read-out: HCT-116 48 h(IC50), Table 6 maple compounds, 48 h, unit inferred
[15] = HCT-116, 72 h, Table 6 maple compounds, 72 h, unit inferred, read-out: HCT-116 72 h(IC50)
[16] = Table 6 maple compounds, unit inferred, read-out: CCD-18Co 72 h(IC50)
[17] = HT-29, 48 h, read-out: HT-29 48 h(IC50), Table 6 maple compounds, 48 h, unit inferred
[18] = HT-29, 72 h, Table 6 maple compounds, 72 h, unit inferred, read-out: HT-29 72 h(IC50)
[19] = Caco-2, 48 h, read-out: Caco-2 48 h(IC50), Table 6 maple compounds, 48 h, unit inferred
[20] = Caco-2, 72 h, Table 6 maple compounds, 72 h, unit inferred, read-out: Caco-2 72 h(IC50)

Row | Compound | IC50 [5] | IC50 [1, 6] | IC50 [1, 7] | IC50 [3, 10] | IC50 [3, 11] | IC50 [4, 13] | IC50 [1, 14] | IC50 [1, 15] | IC50 [3, 17] | IC50 [3, 18] | IC50 [4, 19] | IC50 [4, 20] | other results
1 | O=C(OC[C@H]1OC[C@H](OC(=O)c2cc(O)c(O)c(O)c2)[C@@H](O)[C@@H]1O)c1cc(O)c(O)c(O)c1 [Ginnalin A] |  |  |  |  |  |  |  |  |  |  |  |  | HCT-116 48 h IC50 ([1]; 48 h, ginnalins): 21.5 ± 1.6 µg/mL; HCT-116 72 h IC50 ([1]; 72 h, ginnalins): 16.3 ± 2.1 µg/mL; CCD-18Co 72 h IC50 ([2]; ginnalins): 46.6 ± 3.6 µg/mL; HT-29 48 h IC50 ([3]; 48 h, ginnalins): 31.0 ± 2.6 µg/mL; HT-29 72 h IC50 ([3]; 72 h, ginnalins): 24.1 ± 1.3 µg/mL; Caco-2 48 h IC50 ([4]; 48 h, ginnalins): 28.8 ± 1.8 µg/mL; Caco-2 72 h IC50 ([4]; 72 h, ginnalins): 21.7 ± 1.0 µg/mL
2 | COc1cc(CC(CO)C(CO)Cc2ccc(O)c(OC)c2)ccc1O (stereo not shown) [compound 2, secoisolariciresinol] | 1540.9 ± 0.5 µM | 78 ± 2.3 µM | 59.1 ± 1.5 µM | 88.7 ± 2.2 µM | 68.2 ± 1.4 µM | 70.9 ± 2.3 µM |  |  |  |  |  |  | IC50 [1, 8]: 42 to 67 µM; IC50 [2, 9]: 99.6 ± 4.9 µM; IC50 [4, 12]: 85 ± 3.8 µM
3 | COc1cc(C2Oc3c(OC)cc(CCCO)cc3C2CO)cc(OC)c1O (stereo not shown) [compound 4] |  |  |  |  |  |  | 78 µM | 59.1 µM | 88.7 µM | 68.2 µM | 85 µM | 70.9 µM | IC50 [2, 16]: 99.6 µM
4 | COc1ccc(C2OC(=O)C(O)(Cc3ccc(OC4OC(C)C(O)C(O)C4O)c(OC)c3)C2CO)cc1OC [compound 7, [3-[4-[(6-deoxy-α-L-mannopyranosyl)oxy]-3-methoxyphenyl]methyl]-5-(3,4-dimethoxyphenyl)dihydro-3-hydroxy-4-(hydroxymethyl)-2(3H)-furanone] | 740.2 ± 3.4 µM |  |  |  |  |  |  | 103 µM |  | 98.2 µM |  | 96.8 µM | 
5 | COc1cc2ccc(=O)oc2cc1O [compound 8, scopoletin] | 655 ± 14.4 µM | 68.1 ± 1 µM | 60.6 ± 2 µM | 78.7 ± 1.2 µM | 70 ± 1.3 µM | 82 ± 2 µM | 68.1 µM | 60.6 µM | 78.7 µM | 70.2 µM | 89.3 µM | 82 µM | IC50 [1, 8]: 42 to 67 µM; IC50 [2, 16]: 103 µM; IC50 [2, 9]: 103 ± 5.9 µM; IC50 [4, 12]: 89.3 ± 0.9 µM
6 | COc1cc2ccc(=O)oc2c(O)c1O [compound 9, fraxetin] | 479 ± 42.1 µM | 112 ± 1.8 µM | 84.5 ± 1.6 µM | 101 ± 1.2 µM | 93.4 ± 2.6 µM | 101 ± 1.3 µM | 112 µM | 84.5 µM | 101 µM | 93.4 µM |  | 101 µM | IC50 ([1]; HCT-116, 72 h, 72 h, range given for the group, unit inferred, read-out: IC50 against HCT-116 cells at 72 h (moderately active group)): 75 to 85 µM
7 | O=C(CO)c1ccc(O)c(O)c1 [compound 11, 2-hydroxy-3′,4′-dihydroxyacetophenone] | 422.9 ± 2.4 µM |  |  |  |  |  |  |  |  |  | 92.5 µM | 86 µM | 
